These results are taken from article PMC5469273, “Discovery of Novel Small-Molecule Inhibitors of LIM Domain Kinase for Inhibiting HIV-1” (Journal of Virology, 2017).

One test addresses TBK1 (Homo sapiens, UniProt Q9UHD2). Put plainly: Kinase profiling (Reaction Biology): TBK1.
Another test deals with HIV-1(Nef-luciferase). Put plainly: Nef-luciferase-based viral entry assay. Format: cell-based. The note with it: 100 μM; data not shown.
The subject of a further test is phosphorylation of PAK2. As to the kind of experiment: Western blotting for PAK2 phosphorylation in CEM-SS T cells. The note with it: 100 μM, time course. (In western blotting, separated proteins are transferred to a membrane and probed.)
In the next test the target is PKCa (Homo sapiens, UniProt P17252). Put plainly: Kinase profiling (Reaction Biology): PKCa.
A further test addresses FLT3 (Homo sapiens, UniProt P36888). As to the kind of experiment: Kinase profiling (Reaction Biology): FLT3.
The next test concerns the target ROCK1 (Homo sapiens, UniProt Q13464). As to the kind of experiment: Kinase profiling (Reaction Biology): ROCK1.
The target in another test is PLK2 (Homo sapiens, UniProt Q9NYY3). As to the kind of experiment: Kinase profiling (Reaction Biology): PLK2.
Sequence of PLK2 (Q9NYY3 whole entry): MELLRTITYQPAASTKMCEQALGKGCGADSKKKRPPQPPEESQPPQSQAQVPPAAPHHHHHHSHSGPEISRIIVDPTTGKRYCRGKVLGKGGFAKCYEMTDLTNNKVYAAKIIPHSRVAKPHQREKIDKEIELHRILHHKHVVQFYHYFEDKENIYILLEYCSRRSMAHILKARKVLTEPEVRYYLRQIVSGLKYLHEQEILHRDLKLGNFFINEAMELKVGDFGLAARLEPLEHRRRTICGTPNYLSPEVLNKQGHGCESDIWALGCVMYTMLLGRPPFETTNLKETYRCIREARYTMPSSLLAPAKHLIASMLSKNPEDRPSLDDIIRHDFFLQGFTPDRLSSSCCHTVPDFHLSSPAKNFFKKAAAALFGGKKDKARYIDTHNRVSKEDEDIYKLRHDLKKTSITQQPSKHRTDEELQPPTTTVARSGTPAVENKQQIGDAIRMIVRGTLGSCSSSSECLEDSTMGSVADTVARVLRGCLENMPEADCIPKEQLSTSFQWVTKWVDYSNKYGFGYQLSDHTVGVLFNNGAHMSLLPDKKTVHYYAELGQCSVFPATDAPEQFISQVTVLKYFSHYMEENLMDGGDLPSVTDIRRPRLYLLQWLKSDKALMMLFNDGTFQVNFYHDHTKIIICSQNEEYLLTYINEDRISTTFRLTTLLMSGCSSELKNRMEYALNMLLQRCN
A further test deals with SGK1 (Homo sapiens, UniProt O00141). As to the kind of experiment: Kinase profiling (Reaction Biology): SGK1.
The next test addresses CK2a (Homo sapiens, UniProt P68400). As to the kind of experiment: Kinase profiling (Reaction Biology): CK2a.

As usually defined, the inhibition is the change of the read-out against control, counted positive when it falls.

Sequence of FLT3 (P36888 27-993): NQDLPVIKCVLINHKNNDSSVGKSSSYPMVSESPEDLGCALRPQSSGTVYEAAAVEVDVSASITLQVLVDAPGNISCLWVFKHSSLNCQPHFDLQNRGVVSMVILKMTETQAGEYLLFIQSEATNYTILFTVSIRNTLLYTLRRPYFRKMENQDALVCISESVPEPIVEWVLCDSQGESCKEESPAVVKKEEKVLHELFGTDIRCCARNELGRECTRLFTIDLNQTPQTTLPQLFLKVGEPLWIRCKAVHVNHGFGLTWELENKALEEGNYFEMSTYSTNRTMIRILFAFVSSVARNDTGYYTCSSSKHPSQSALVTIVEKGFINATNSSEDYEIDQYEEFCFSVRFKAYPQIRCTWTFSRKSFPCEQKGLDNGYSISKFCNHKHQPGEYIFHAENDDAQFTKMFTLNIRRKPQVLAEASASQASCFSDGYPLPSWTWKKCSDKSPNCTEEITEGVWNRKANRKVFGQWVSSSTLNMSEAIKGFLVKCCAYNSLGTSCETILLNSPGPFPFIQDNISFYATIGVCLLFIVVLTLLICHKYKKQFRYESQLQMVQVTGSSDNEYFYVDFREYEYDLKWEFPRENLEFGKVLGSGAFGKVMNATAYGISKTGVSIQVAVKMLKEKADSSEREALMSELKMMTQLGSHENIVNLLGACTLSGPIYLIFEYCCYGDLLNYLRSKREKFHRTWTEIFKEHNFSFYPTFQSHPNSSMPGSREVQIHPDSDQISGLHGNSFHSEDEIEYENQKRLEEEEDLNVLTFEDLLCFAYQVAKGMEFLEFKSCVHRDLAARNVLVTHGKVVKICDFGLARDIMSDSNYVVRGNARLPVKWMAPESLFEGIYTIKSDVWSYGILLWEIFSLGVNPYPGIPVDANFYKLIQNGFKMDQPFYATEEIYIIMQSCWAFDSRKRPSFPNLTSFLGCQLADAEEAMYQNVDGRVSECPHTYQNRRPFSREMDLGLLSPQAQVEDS
Sequence of ROCK1 (Q13464 whole entry): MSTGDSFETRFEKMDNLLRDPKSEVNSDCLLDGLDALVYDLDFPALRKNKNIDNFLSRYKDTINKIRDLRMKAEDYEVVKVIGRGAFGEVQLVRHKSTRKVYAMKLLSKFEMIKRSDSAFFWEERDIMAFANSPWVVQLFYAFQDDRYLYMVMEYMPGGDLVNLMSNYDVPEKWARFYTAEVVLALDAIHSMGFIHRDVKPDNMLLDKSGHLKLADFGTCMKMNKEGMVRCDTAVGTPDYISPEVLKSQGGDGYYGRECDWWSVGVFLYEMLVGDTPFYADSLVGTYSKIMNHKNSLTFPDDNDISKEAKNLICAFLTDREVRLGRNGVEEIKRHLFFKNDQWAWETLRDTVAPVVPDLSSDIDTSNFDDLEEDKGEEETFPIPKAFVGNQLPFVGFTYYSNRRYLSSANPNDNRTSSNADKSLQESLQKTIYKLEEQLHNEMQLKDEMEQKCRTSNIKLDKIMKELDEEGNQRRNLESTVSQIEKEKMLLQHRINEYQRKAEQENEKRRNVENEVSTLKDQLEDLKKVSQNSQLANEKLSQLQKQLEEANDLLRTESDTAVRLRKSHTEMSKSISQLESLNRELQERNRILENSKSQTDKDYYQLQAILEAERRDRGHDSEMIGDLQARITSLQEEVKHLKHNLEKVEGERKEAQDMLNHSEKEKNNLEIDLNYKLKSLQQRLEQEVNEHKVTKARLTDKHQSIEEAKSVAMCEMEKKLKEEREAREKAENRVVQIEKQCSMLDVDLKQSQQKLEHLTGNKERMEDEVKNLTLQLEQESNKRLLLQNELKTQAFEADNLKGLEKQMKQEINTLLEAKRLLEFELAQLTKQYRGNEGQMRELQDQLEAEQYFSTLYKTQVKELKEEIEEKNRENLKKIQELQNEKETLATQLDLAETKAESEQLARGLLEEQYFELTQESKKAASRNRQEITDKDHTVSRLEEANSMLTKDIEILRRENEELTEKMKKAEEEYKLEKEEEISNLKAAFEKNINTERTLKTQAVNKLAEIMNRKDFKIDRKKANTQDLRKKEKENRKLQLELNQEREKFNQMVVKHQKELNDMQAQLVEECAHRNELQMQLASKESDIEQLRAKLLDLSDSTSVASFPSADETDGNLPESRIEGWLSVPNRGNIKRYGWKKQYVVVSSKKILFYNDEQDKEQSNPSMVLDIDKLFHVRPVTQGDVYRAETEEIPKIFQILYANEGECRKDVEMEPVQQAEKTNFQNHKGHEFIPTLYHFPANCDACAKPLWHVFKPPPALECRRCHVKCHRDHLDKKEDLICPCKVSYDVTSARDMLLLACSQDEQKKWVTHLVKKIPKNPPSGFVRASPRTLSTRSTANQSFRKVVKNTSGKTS
Sequence of TBK1 (Q9UHD2 whole entry): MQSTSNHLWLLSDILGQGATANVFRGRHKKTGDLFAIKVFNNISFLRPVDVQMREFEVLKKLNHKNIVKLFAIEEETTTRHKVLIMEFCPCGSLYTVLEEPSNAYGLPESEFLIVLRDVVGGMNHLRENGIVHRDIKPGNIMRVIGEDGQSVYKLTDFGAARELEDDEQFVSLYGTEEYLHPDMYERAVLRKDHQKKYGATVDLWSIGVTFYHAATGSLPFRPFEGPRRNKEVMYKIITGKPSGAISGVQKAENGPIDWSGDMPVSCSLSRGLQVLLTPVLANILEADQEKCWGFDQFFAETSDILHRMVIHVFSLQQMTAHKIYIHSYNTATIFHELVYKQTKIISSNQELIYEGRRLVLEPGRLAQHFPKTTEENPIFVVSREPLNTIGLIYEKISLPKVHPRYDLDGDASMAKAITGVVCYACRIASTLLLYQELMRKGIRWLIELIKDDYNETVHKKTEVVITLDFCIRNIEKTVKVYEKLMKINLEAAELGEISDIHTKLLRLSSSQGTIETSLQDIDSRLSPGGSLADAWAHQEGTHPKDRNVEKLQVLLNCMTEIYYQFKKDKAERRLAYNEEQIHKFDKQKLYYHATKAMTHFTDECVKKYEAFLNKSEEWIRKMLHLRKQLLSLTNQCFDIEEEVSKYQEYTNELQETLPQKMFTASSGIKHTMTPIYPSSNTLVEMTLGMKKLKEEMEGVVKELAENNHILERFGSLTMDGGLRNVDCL
Sequence of CK2a (P68400 whole entry): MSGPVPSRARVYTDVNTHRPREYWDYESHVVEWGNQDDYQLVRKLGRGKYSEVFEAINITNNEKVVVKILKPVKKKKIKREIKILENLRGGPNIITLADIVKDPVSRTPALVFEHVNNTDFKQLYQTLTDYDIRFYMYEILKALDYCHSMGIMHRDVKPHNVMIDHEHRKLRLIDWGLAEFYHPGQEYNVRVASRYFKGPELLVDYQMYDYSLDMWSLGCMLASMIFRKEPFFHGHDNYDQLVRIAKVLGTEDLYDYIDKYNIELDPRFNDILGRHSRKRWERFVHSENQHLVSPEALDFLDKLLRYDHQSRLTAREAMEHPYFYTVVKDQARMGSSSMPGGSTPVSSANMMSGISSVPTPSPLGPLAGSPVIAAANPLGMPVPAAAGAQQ

`COC(=O)c1ccc2[nH]c(C3CCN(c4ncnc5[nH]cc(Cl)c45)CC3)nc2c1` [Compound R10015, Methyl 2-(1-(5-chloro-7H-pyrrolo[2,3-d]pyrimidin-4-yl)piperidin-4-yl)-1H-benzo[d]imidazole-5-carboxylate]: the activity at 1 µM at TBK1 was determined as 82%; on PKCa it was 47.5%; at FLT3, 32.2%; on ROCK1, 42.3%; on PLK2, 103%; at SGK1 it was 61%. In addition, the activity at 1 µM at CK2a is 94.2%. Moreover, in the test with HIV-1(Nef-luciferase), the “viral entry, HIV-1(Nef-luciferase)” value is listed as “did not significantly inhibit”. Further, the “phosphorylation of PAK2” value with phosphorylation of PAK2 is “not affected”. Also, the inhibition at 1 µM at FLT3 (read-out: inhibition of FLT3) is approximately 68%.
